# Experimental data reported in the supplement of paper PMC5844555.
# Tests used:
# Assay in all cases: 3' UTR reporter interaction score (median-centred robust z-score of log2 firefly/Renilla activity); higher = less repression of the 3' UTR reporter
# Conditions in all cases: HEK293T; 48 h
# ZEB2 = test system: ZEB2
# Summary of the method: (§1)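 HEK293T cells (10,000/well, 96-well plates) were co-transfected using DharmaFECT Duo with 100 ng firefly luc2P reporter carrying the gene's 3' UTR, 20 ng Renilla pRL-TK control and 2.5 pmol miRNA mimic. Dual-luciferase activities were read 48 h post-transfection. The interaction score is the log-transformed firefly/Renilla ratio as a per-plate robust z-score (median, median absolute deviation), median-centred per miRNA and averaged over at least two independent screens; more negative indicates interaction.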
# RB1 = test system: RB1
# Summary of the method: as §1
# PHOX2B = test system: PHOX2B
# Summary of the method: as §1
# MYB = test system: MYB
# Summary of the method: as §1
# FBXW7 = test system: FBXW7
# Summary of the method: as §1
# PHF6 = test system: PHF6
# Summary of the method: as §1
# MYC = test system: MYC
# Summary of the method: as §1
# EZH2 = test system: EZH2
# Summary of the method: as §1
# HRAS = test system: HRAS
# Summary of the method: as §1
# TP53 = test system: TP53
# Summary of the method: as §1
# MYT1L = test system: MYT1L
# Summary of the method: as §1
# BRCA2 = test system: BRCA2
# Summary of the method: as §1
# NOTCH1 = test system: NOTCH1
# Summary of the method: as §1
# MYCN = test system: MYCN
# Summary of the method: as §1
Sequence,3' UTR reporter interaction score (ZEB2),3' UTR reporter interaction score (RB1),3' UTR reporter interaction score (PHOX2B),3' UTR reporter interaction score (MYB),3' UTR reporter interaction score (FBXW7),3' UTR reporter interaction score (PHF6),3' UTR reporter interaction score (MYC),3' UTR reporter interaction score (EZH2),3' UTR reporter interaction score (HRAS),3' UTR reporter interaction score (TP53),3' UTR reporter interaction score (MYT1L),3' UTR reporter interaction score (BRCA2),3' UTR reporter interaction score (NOTCH1),3' UTR reporter interaction score (MYCN)
UCUAGGCUGGUACUGCUGA,0.447,-0.812,-0.185,0.874,0.217,-0.473,-0.9,-0.385,-0.226,0.681,0.751,-0.172,-0.326,0.628
UCUAGUAAGAGUGGCAGUCG,0.627,-1.19,1.81,0.506,1.23,0.233,-0.209,-0.108,-0.21,0.771,-0.214,0.0816,0.0614,-0.229
UCUCCCAACCCUUGUACCAGUG,0.808,-0.714,-0.32,-6.53,-1.26,0.168,0.62,0.195,0.137,-0.706,0.779,0.0345,-0.369,0.5
UCUCUGGAGGGAAGCACUUUCUG,-2.97,-0.609,-0.501,-1.99,0.444,1.92,0.317,1.18,-0.075,0.306,-1.64,1.47,-2.09,-0.393
UCUGGCUCCGUGUCUUCACUCC,1.83,0.119,1.22,-1.3,-0.481,-0.567,-0.629,0.8,1.54,0.211,1.3,0.156,-2.05,1.42
